In paper PMC8308925 (Pharmaceuticals, 2021):
In brackets after ≈: the same amount, converted by molar mass. Where two headings read alike, the source gives them in different places.

Key:
OATP1B3 [1] = target: T1, OATP1B3 (Homo sapiens, UniProt Q9NPD5); test: in vitro
T1 sequence (Q9NPD5 1-702): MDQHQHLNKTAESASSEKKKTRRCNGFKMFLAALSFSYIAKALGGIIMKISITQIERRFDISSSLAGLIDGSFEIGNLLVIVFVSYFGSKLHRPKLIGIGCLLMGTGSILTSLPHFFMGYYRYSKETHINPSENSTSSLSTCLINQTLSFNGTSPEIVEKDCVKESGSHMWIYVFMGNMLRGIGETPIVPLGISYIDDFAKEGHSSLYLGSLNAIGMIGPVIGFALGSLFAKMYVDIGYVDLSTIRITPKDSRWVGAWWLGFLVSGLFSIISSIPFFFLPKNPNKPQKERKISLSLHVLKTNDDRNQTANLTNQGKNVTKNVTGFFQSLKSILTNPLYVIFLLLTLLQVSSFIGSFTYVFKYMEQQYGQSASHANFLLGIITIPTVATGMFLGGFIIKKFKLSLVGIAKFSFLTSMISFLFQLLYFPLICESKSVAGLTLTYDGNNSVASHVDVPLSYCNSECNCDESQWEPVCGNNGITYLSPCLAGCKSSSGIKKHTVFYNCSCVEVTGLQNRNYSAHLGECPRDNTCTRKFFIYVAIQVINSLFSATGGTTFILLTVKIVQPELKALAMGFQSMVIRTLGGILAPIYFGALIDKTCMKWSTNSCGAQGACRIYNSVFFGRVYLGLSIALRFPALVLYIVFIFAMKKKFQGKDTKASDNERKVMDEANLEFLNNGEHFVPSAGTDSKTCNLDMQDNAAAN
Method: (§1) For the experiments, 0.8 × 10^5 cells per well were seeded in poly-D-lysine coated 24-well plates, except for HEK293-ASBT cells, where 1 × 10^5 cells per well were seeded in poly-D-lysine coated 24-well plates. After incubation for 48 h, the medium was removed and the cells were washed with DPBS and preincubated for 10 min in DPBS at 37 °C.
(§2) Cells were disintegrated in 150 µL of 70% acetonitrile containing internal standard (IS; 200 nM of chenodeoxycholic acid). The cells were sonicated for 3 s and centrifuged at 13,000 rpm for 10 min. An aliquot (5 µL) from the supernatant (100 µL) was injected into LC-MS/MS system.
(§3) The sample preparation method is as stated above.
(§4) Vmax represents the maximum velocity at saturating substrate concentration, [S] represents the substrate concentration, Km represents the substrate concentration at half Vmax, and CLdiffusion represents the passive diffusion clearance.

CYP2E1 = CYP2E1 (Homo sapiens, UniProt P05181); test: biochemical
OATP1B1 = target: T2, OATP1B1 (Homo sapiens, UniProt Q9Y6L6); test: in vitro
T2 sequence (Q9Y6L6 1-691): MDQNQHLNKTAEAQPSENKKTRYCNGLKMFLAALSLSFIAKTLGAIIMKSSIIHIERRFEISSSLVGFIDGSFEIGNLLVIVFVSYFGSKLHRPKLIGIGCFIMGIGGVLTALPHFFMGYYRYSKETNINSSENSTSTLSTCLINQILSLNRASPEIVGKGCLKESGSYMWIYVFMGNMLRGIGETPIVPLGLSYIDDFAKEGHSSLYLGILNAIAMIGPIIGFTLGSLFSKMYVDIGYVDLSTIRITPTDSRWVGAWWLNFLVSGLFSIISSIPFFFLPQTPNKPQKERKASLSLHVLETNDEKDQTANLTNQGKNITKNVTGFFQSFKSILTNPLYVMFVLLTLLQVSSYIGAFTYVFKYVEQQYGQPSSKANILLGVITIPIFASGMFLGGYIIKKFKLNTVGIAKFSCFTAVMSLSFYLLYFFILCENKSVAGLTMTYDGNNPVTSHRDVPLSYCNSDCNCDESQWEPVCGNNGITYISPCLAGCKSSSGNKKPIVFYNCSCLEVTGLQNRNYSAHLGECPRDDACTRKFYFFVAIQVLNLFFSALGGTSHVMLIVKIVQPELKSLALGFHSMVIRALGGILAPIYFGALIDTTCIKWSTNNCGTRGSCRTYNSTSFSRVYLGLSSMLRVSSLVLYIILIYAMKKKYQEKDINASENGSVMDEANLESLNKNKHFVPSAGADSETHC

ASBT [2] = target: T3, ASBT (Homo sapiens, UniProt Q12908); test: Uptake of MT921 and probe substrate in HEK 293-ASBT cells (substrate specificity, kinetics); assay type: in vitro ADME; conditions: ASBT-mediated MT921 uptake, 5–100 µM
T3 sequence (Q12908 1-348): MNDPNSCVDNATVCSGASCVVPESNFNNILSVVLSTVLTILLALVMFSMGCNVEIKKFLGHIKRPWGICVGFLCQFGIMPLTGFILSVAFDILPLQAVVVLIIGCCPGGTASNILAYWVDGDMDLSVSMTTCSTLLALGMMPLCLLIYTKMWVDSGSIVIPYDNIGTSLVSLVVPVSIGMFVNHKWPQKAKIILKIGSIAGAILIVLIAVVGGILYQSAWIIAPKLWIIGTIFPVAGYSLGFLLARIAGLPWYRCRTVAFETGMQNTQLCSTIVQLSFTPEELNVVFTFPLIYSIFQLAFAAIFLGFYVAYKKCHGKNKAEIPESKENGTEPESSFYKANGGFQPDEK
Method: as §1, §2, §3, §4

NTCP = target: T4, NTCP (Homo sapiens, UniProt Q14973); test: Uptake of MT921 and probe substrate in HEK 293-NTCP cells (substrate specificity, kinetics)
T4 sequence (Q14973 1-349): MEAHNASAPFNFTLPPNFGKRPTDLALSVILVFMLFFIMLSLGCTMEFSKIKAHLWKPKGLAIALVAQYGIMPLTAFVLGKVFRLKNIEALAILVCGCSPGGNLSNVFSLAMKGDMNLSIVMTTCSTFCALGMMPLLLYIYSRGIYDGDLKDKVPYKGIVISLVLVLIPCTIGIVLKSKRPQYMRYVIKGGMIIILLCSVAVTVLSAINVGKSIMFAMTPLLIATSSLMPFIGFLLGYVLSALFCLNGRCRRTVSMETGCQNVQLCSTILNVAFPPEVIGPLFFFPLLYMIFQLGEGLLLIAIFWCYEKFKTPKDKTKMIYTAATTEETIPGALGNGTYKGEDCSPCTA
Method: as §1, §2, §3, §4

OATP1B3 [3] = target: T1, OATP1B3
CYP2C8 = target: T5, CYP2C8 (Homo sapiens, UniProt P10632); conditions: read-out: Positive control IC50; Rosiglitazone hydroxylation; in-house data, similar to the reference values [1]
T5 sequence (P10632 1-490): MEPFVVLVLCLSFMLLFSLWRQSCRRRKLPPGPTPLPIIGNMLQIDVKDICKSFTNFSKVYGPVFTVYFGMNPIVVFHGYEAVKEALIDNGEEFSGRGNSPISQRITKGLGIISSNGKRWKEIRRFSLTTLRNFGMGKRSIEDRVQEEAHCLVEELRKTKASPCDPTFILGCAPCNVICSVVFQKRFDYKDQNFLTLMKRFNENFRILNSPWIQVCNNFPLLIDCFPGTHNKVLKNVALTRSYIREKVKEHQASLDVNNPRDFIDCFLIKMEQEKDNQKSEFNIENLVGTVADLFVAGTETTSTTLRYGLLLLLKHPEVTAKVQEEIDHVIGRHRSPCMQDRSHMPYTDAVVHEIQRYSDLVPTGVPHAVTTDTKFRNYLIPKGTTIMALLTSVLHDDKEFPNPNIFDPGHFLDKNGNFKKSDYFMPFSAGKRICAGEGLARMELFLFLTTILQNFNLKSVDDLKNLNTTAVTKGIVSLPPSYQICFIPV

[4] = cited from earlier work
[5] = amlodipine PBPK model parameter, cited from earlier work
ASBT [6] = target: T3, ASBT; conditions: inhibition of ASBT, implemented in DDI model; ref [61]; cited from earlier work
[7] = substrate: C[C@H](CCC(=O)O)[C@H]1CC[C@H]2[C@@H]3[C@H](O)C[C@@H]4C[C@H](O)CC[C@]4(C)[C@H]3C[C@H](O)[C@]12C; test: cells, lysate or membranes named; conditions: other: OAT3-mediated MT921 uptake, 5–300 µM, modified Michaelis–Menten fit; 37.0 °C
[8] = Literature, ref [33] (supplement list)

Sequence of CYP2E1 (P05181 whole entry): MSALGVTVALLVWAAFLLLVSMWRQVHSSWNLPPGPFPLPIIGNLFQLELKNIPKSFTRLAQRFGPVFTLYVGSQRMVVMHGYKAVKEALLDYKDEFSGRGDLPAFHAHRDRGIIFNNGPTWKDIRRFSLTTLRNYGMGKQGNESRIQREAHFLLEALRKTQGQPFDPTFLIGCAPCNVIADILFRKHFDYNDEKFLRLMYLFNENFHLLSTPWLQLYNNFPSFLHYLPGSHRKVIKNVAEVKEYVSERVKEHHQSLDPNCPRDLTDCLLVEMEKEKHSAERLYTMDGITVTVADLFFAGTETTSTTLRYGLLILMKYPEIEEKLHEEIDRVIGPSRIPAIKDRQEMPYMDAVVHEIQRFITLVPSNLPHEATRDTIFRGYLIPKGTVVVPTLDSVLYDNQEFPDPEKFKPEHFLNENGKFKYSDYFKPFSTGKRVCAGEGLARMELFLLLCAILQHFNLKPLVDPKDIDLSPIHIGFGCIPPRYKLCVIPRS

C[C@]12CC[C@@H]3c4ccc(O)cc4CC[C@H]3[C@@H]1CC[C@@H]2O[C@@H]1O[C@H](C(=O)O)[C@@H](O)[C@H](O)[C@H]1O
Increase of probe substrate uptake rate in transporter-expressing cells compared to mock cells (OATP1B3 [1]; 0.06 µM probe substrate, HEK 293-OATP1B3): 9.6 fold

CCN(CC)C(=S)S [Diethyldithio-carbamate]
IC50 (CYP2E1): 16.7 µM

C[C@H](CCC(=O)O)[C@H]1CC[C@H]2[C@@H]3[C@H](O)C[C@@H]4C[C@H](O)CC[C@]4(C)[C@H]3C[C@H](O)[C@]12C [MT921, cholic acid]
IC50 at 5 min (OATP1B1): 63.2 µM | Vmax (ASBT [2]): 302.31 pmol/mg protein/min | Km (OATP1B3 [1]; OATP1B3-mediated MT921 uptake, 5–100 µM, modified Michaelis–Menten fit): 27.4 µM | intrinsic clearance (Vmax/Km) (OATP1B3 [1]; human): 3.46 µL/mg protein/min | Km at 10 min (OATP1B3 [1]; human, Km, OATP1B3-mediated MT921 uptake, 5–100 µM, modified Michaelis–Menten fit): 27.4 µM | Vmax (NTCP; NTCP-mediated MT921 uptake, 5–100 µM): 409.28 pmol/mg protein/min | CLdiffusion (NTCP; passive diffusion clearance, HEK 293-NTCP): 1.27 µL/mg protein/min | IC50 (OATP1B3 [3]): 38.3 µM | Ki (OATP1B3 [3]): 38.2 µM

O=c1c(O)c(-c2ccc(O)c(O)c2)oc2cc(O)cc(O)c12 [Quercetin]
IC50 (CYP2C8): 8.47 µM

C[C@H](CCC(=O)NCCS(=O)(=O)O)[C@H]1CC[C@H]2[C@@H]3[C@H](O)C[C@@H]4C[C@H](O)CC[C@]4(C)[C@H]3C[C@H](O)[C@]12C [[^3H]taurocholate]
Increase of probe substrate uptake rate in transporter-expressing cells compared to mock cells (NTCP; 0.8 µM probe substrate, HEK 293-NTCP): 102.1 fold

CCOC(=O)C1=C(COCCN)NC(C)=C(C(=O)OC)C1c1ccccc1Cl (centres unmarked) [amlodipine]
Cmax Obs ([4]; 2.5 mg po (tab), sd, ref [28] (supplement list)): 1.94 ng/mL | Cmax Obs ([4]; 5 mg po (tab), sd, first line of the study, ref [27] (supplement list)): 3.56 ng/mL | Cmax Obs ([4]; 5 mg po (tab), sd, ref [17] (supplement list)): 2.36 ng/mL | Cmax Obs ([4]; 5 mg po (tab), sd, ref [20] (supplement list)): 3.18 ng/mL | Cmax Obs ([4]; 5 mg po (tab), sd, ref [23] (supplement list)): 2.44 ng/mL | Cmax Obs ([4]; 5 mg po (tab), sd, ref [25] (supplement list)): 2.54 ng/mL | Cmax Obs ([4]; 5 mg po (tab), sd, ref [30] (supplement list)): 3.07 ng/mL | Cmax Obs ([4]; 5 mg po (tab), sd, second line of the study, ref [27] (supplement list)): 3.64 ng/mL | Cmax Obs ([4]; 10 mg po (tab), md, ref [16] (supplement list)): 18.77 ng/mL | Cmax Obs ([4]; 10 mg po (tab), md, ref [21] (supplement list)): 18.73 ng/mL | Cmax Obs ([4]; 10 mg po (tab), sd, first line of the study, ref [22] (supplement list)): 5.32 ng/mL | Cmax Obs ([4]; 10 mg po (tab), sd, ref [17] (supplement list)): 5.13 ng/mL | Cmax Obs ([4]; 10 mg po (tab), sd, ref [18] (supplement list)): 5.51 ng/mL | Cmax Obs ([4]; 10 mg po (tab), sd, ref [19] (supplement list)): 5.40 ng/mL | Cmax Obs ([4]; 10 mg po (tab), sd, ref [20] (supplement list)): 6.85 ng/mL | Cmax Obs ([4]; 10 mg po (tab), sd, ref [24] (supplement list)): 8.13 ng/mL | Cmax Obs ([4]; 10 mg po (tab), sd, ref [26] (supplement list)): 6.41 ng/mL | Cmax Obs ([4]; 10 mg po (tab), sd, ref [29] (supplement list)): 4.92 ng/mL | Cmax Obs ([4]; 10 mg po (tab), sd, second line of the study, ref [22] (supplement list)): 4.37 ng/mL | Fraction unbound [5, 8]: 0.07 | Log P [5, 8]: 3.43 Log units | Solubility ([5]; extracted from published literature, no reference given): 75.3 µg/mL (≈ 184 µM) | Ki (ASBT [6]): 42.1 µM

B1: OAT3 (Homo sapiens) (protein)
chain: MTFSEILDRVGSMGHFQFLHVAILGLPILNMANHNLLQIFTAATPVHHCRPPHNASTGPWVLPMGPNGKPERCLRFVHPPNASLPNDTQRAMEPCLDGWVYNSTKDSIVTEWDLVCNSNKLKEMAQSIFMAGILIGGLVLGDLSDRFGRRPILTCSYLLLAASGSGAAFSPTFPIYMVFRFLCGFGISGITLSTVILNVEWVPTRMRAIMSTALGYCYTFGQFILPGLAYAIPQWRWLQLTVSIPFFVFFLSSWWTPESIRWLVLSGKSSKALKILRRVAVFNGKKEEGERLSLEELKLNLQKEISLAKAKYTASDLFRIPMLRRMTFCLSLAWFATGFAYYSLAMGVEEFGVNLYILQIIFGGVDVPAKFITILSLSYLGRHTTQAAALLLAGGAILALTFVPLDLQTVRTVLAVFGKGCLSSSFSCLFLYTSELYPTVIRQTGMGVSNLWTRVGSMVSPLVKITGEVQPFIPNIIYGITALLGGSAALFLPETLNQPLPETIEDLENWSLRAKKPKQEPEVEKASQRIPLQPHGPGLGSS
Km [7]: 133.33 µM | Vmax/Km [7]: 1.28 µL/mg protein/min
